From patent US20020028790A1, “Use of agonists or antagonists of P2 purinoceptors for the prevention glutamate-evoked cytotoxicity” (priority 1995, published 2002)

Columns and labels:
[1] = test system: cerebellar granule neurons; experiment: Glutamate-induced release of [3H] aspartate from cerebellar granule cells; assay type: cell-based, rat
Source text: Since D-[^3H] aspartate release has been often used as a measure of the functional state of cerebellar granule neurons cultured in vitro and depolarization- or glutamate-evoked aspartate release is a feature progressively aquired by these cells along with neuronal maturation, we decided to test this parameter to further study the biological effects and possible mechanisms used by basilen blue in the prevention of cell death. We find that basilen blue inhibits glutamate-induced release of [^3H] aspartate with an IC50 of about 10 μM. […] Also a cronic exposure of granule neurons for 8 days to 100 μM AMPPNP inhibits by 70-80% the glutamate-evoked release of [^3H] aspartate.
(§1) (FIG. 7) Replicate cerebellar granule cultures at 8 DIV were incubated for 1 min in Locke's solution in the presence of 45 Ca^++ (1 μCi/ml), with or without 100 μM glutamate, and were then assessed for Ca^++ influx. (FIG. 8) Replicate cerebellar granule cultures at 8 DIV were incubated for 5 min in Locke's solution, in the presence of [^3H] D-2,3 aspartic acid (1 μCi/ml, final concentration 40 nM) and were then assessed for aspartate release, in the presence or absence of 100 μM glutamate. Data are expressed as means±SEM (n=3).
(§2) Basilen Blue inhibits release of aspartate and uptake of Ca^++ induced by glutamate in cerebellar granule cells. (FIG. 9) Replicate cerebellar granule cultures at 8 DIV were incubated for 5 min in Locke's solution in the presence of [^3H] D-2,3 aspartic acid (1 μCi/ml, final concentration 40 nM). After two washes, the cultures were then incubated for 1 min in Locke's solution with or without 100 μM glutamate and in the presence of different concentrations of basilen blue. The buffer removed from the cultures during this release phase was collected into vials and counted for radioactivity. The asterisk represents the release of aspartate obtained in the simultaneous presence of 100 μM glutamate and 100 μM caffeine. Cells were dissolved in 0.1 M NaOH and protein concentrations were determined by the method of Bradford, with bovine serum albumin as standard. (FIG. 10) Replicate cerebellar granule cultures at 8 DIV were incubated for 1 min in Locke's solution in the presence of 45 Ca^++ (1 μCi/ml), with our without 100 μM glutamate, and in the simultaneous presence of different concentrations of basilen blue. After two washes with ice-cold 154 mM choline chloride, 2 mM EDTA, the cells were lysed in 0.1 M NaOH and aliquots were collected for measuring Ca^++ influx (by radioactive counting) and protein concentration. The asterisk represents the Ca^++ influx obtained in the simultaneous presence of 100 μM glutamate and 100 μM caffeine. Data are expressed as means±SEM (n=3).

[2] = test system: cerebellar granule neurons; experiment: Uptake of [3H] aspartate by cerebellar granule cultures; assay type: cell-based, rat; settings: same basilen blue treatments as for cytotoxicity
Procedure: The effects of basilen blue on protection from cytotoxicity are linear with time and depend on the modality of somministration of the compound. When basilen blue is added to the cells 10 min after glutamate, and then incubated with granule neurons for only 15 min, it protects from cell death 60-70% of the entire neuronal population; if somministered only for the last 5 min of treatment of the cells with glutamate, basilen blue sustains survival of 25-40% of total neurons. When instead it is added 1-2 min or 30 min or 2 hours after exposure of granule neurons to glutamate (and then incubated with the cells for the next 20 hours) basilen blue protects from cell death respectively 55-70%, 30% and 10% of the total neuronal population. When it is added before (not during or after) exposure of granule neurons to glutamate, basilen blue requires a pretreatment of at least 20-25 hours in order to prevent by 70-80% the cytotoxic action of glutamate. Inhibition of aspartate uptake is not obtained as a consequence of these same treatments.
Basilen Blue inhibits binding of ATP to cerebellar granule cell membranes, but to uptake of aspartate. […] After two washes, cells were dissolved in 0.1 M NaOH and counted for incorporated radioactivity by liquid scintillation counting. […] Protein concentrations were determined by the method of Bradford with ovine serum albumin as standard.

[3] = test system: intact cells (granule neurons, [3H] ATP binding); experiment: Binding of [3H] ATP to intact cells; parameters: species or system rat
Procedure: (§3) Basilen blue inhibits binding of [^3H] ATP to membranes of granule neurons with an IC50 of about 10 μM, that corresponds to the IC50 that prevents glutamate-evoked cytotoxicity. Binding studies with [^3H]

[4] = test system: membranes of granule neurons ([3H] ATP binding); experiment: Binding of [3H] ATP to cerebellar granule cell membranes; parameters: species or system rat; settings: 1 h at 4° C, read-out: IC50 for inhibition of binding of [3H] ATP to membranes
Procedure: as §3
Basilen Blue inhibits binding of ATP to cerebellar granule cell membranes, but to uptake of aspartate. Membranes were prepared from 8 DIV cerebellar granule ells and 20 μg of protein were incubated with [^3H] ATP (0.5 μCi/ml, final concentration […]) (FIG. 4), in the presence of different concentrations of basilen blue, for 1 h at 4° C. Specific binding is shown and counts represent means±SEM (n=3). The asterisk represents the binding performed in the presence of 100 μM caffeine. In FIG. 5, replicate cerebellar granule cultures at 8 DIV were washed wice and incubated for different times in Locke's solution with [^3H] […] After two washes, cells were dissolved in 0.1 M NaOH and counted for incorporated radioactivity by liquid scintillation counting. […] Protein concentrations were determined by the method of Bradford with ovine serum albumin as standard.
METHODS. […] ATP, the samples (1 ml) were vacuum-filtered through Whatman GF/B glass fiber filters and the filters were immediately washed (3×4 s) with 5 ml of 50 mM Tris-HCl (pH 7.4), air dried and assessed for specifically bound radioactivity by liquid scintillation counting.

[5] = test system: cerebellar granule neurons; experiment: Glutamate-evoked Ca2+ uptake in cerebellar granule cells; assay type: cell-based, rat
Procedure: Glutamate-dependent neurotoxicity is often accompanied also in cerebellar granule neurons with increase in intracellular Ca^2+ via a multistep process. […] Also this value is in accordance with the IC50 found for inhibition of ATP binding, cytotoxicity and aspartate release. The basilen blue-dependent inhibition occurs when Ca^2+ uptake is measured for short (1 min) or for longer times (3, 10, and 25 min). The cronic exposure of granule neurons for 8 days to 100 μM AMPPNP inhibits by 50-70% glutamate-evoked Ca^2+ influx, similarly to the inhibition of cytotoxicity and aspartate release.
as §1, §2

[6] = test system: cerebellar granule neurons; experiment: Glutamate-evoked cytotoxicity in cerebellar granule primary cultures (cell survival by count of intact viable nuclei); assay type: cell-based; settings: for cellular survival / abolition of the cytotoxic action of glutamate: 100 μM compound in the simultaneous presence of 100 μM glutamate (acute exposure); for total neuronal population protected from cell death: incubated for the next 20 hours
Source text: Always according to the present invention, these compounds are used to prevent glutamate-evoked cytotoxicity in the nervous system's cells, particularly in CNS neurons. As a cellular model system for CNS neurons we have adopted postnatal rat cerebellar neurons. These cells, which are among the best characterized primary neuronal cultures, when isolated from postnatal rat cerebellum (Lasher R. S., and Zagon I. S., Brain Res. 41, 428-438, 1972), develop in vitro their mature phenotype as interneurons which use glutamate as a neurotransmitter and furthermore constitute an excellent model system for the study of glutamate-mediated cytotoxicity.
By exposing granule neurons to 100 μM glutamate for 15-30 min is obtained (after 15-20 hours) 80-100% of total cell death. […] The effects of basilen blue on cerebellar granule cell morphology reveal, despite the exposure to glutamate, which otherwise induces complete cell death, apparently healty-looking cell bodies that do bear a dense network of highly branching processes. Adhesion and neurites fasciculation are also preserved by basilen blue.
Basilen Blue prevents cytotoxicity induced by glutamate in cerebellar granule primary cultures: effects of dose-response and modality of addition. Replicate cerebellar granule cultures at 8 DIV were exposed for 25 min to 100 μM glutamate, in the simultaneous presence of different concentrations of basilen blue (FIG. 1). After 20 hours, the cultures were assessed for cultures were assessed for cell survival by direct count of intact viable nuclei. The asterisk represents the % of nuclei obtained after simultaneous addition to the cells of 100 μM glutamate and 100 μM caffeine. In FIG. 2, replicate cerebellar granule cultures at 8 DIV were exposed for 25 min to 100 μM glutamate. At different time after glutamate withdrawl, basilen blue (100 μM) was added to the medium until the cultures, 20 hours later, were assessed for cell survival by direct count of intact viable nuclei. The asterisk represents the % of nuclei obtained after simultaneous addition to the cells of 100 μM glutamate and 100 μM basilen blue. In FIG. 3, replicate cultures were pretreated in the presence of 100 μM basilen blue for different time, before the addition of 100 μM glutamate for 25 min (performed in the absence of basilen blue). After 20 hours the cultures were assessed for cell survival.
The asterisk represents the % of nuclei obtained after simultaneous addition to the cells of 100 μM glutamate and 100 μM basilen blue. Counts represent means±SEM (n=4) and 100% of cell survival represents 1.75−2×10^6 total cells.
METHODS. Approximately 20 hours after exposure of granule cells to glutamate, the culture medium was removed and replaced with 1 ml of a detergent-containing lysing solution (0.5% ethyl hexadecyl dimethyl—ammonium bromide, 0.28% acetic acid, 0.5% Triton X-100, 3 mM NaCl, 2 mM MgCl2, in PBS pH 7.4 diluted 1/10).
After 1-2 minutes, the cells were triturated a few times, providing a uniform uspension of single, intact viable nuclei. The latter were quantified by ounting in a hemacytometer. Broken or damaged nuclei were not included in the counts.
Culturing cerebellar granule cells in the presence of AMPPNP: modulation of glutamate-dependent cell death, Ca^++ uptake and aspartate release. Primary cerebellar granule cultures were prepared and starting at 1 DIV some of time were daily supplemented with 100 μM AMPPNP.(FIG. 6) At 8 DIV, after two washes, some of the cultures were incubated at 20° C. for 25 min with 100 μM glutamate. The following day, they were assessed for cell survival, as previously described.

[7] = chronic exposure for 8 days to 100 μM

Basilen Blue E 3G
IC50 ([1]; 100 μM glutamate, read-out: IC50 for inhibition of glutamate-induced release of [3H] aspartate): ~10 µM | extent of inhibition of glutamate-induced [3H] aspartate release ([1]; release measured for 1, 3, 10, 25 min or in presence of Mg2+): almost complete | basal release of [3H] aspartate ([1]; without glutamate): does not affect | inhibition of aspartate uptake [2]: not obtained | inhibition of [3H] ATP binding to intact cells [3]: as effective | IC50 [4]: ~10 µM | IC50 ([5]; 100 μM glutamate, read-out: IC50 for inhibition of glutamate-evoked Ca2+ uptake): ~10 µM | extent of inhibition of glutamate-evoked Ca2+ uptake ([5]; uptake measured for 1, 3, 10 and 25 min): almost completely abolishes | basal Ca2+ uptake ([5]; without glutamate): not basal | cellular survival / abolition of the cytotoxic action of glutamate [6]: completely sustains cellular survival | IC50 ([6]; 100 μM glutamate, compound present simultaneously, read-out: IC50 for prevention of glutamate-evoked cell death): 10 to 20 µM | total neuronal population protected from cell death ([6]; added 1-2 min after exposure to glutamate): 55-70% | neuronal population protected from cell death ([6]; added 10 min after glutamate, then incubated with neurons for only 15 min): 60-70% | total neuronal population protected from cell death ([6]; added 30 min after exposure to glutamate): 30% | total neuronal population protected from cell death ([6]; added 2 hours after exposure to glutamate): 10% | adhesion and neurites fasciculation ([6]; despite exposure to glutamate, 100 μM basilen blue): preserved | survival of total neurons ([6]; given only for the last 5 min of glutamate treatment): 25-40% | acute response (rapid swelling of the cell body and loss of brightness) ([6]; within the first 5 min of treatment with glutamate, basilen blue added): prevented

Nc1ncnc2c1ncn2C1OC(COP(=O)(O)OP(=O)(O)NP(=O)(O)O)C(O)C1O (stereo not drawn) [AMPPNP, 5-adenylylimidodiphosphate]
inhibition of glutamate-evoked release of [3H] aspartate [1, 7]: 70-80% | inhibition of glutamate-evoked Ca2+ influx [5, 7]: 50-70% | cellular survival / abolition of the cytotoxic action of glutamate [6]: not effective | inhibition of glutamate-induced cytotoxicity ([6]; cells cultured in continuous presence of 100 μM compound from day 1 (not later than day 2) in vitro): 50-60%

Cn1c(=O)c2c(ncn2C)n(C)c1=O [Caffeine]
abolition of the cytotoxic action of glutamate ([6]; up to 100 μM): does not abolish

Nc1c(S(=O)(=O)O)cc(Nc2ccc(Nc3nc(Cl)nc(Nc4ccccc4S(=O)(=O)O)n3)c(S(=O)(=O)O)c2)c2c1C(=O)c1ccccc1C2=O [cibacron blue, Cibacron Blue 3GA]
prevention of glutamate-evoked cell death (in words) [6]: effective
